Positions count from the first letter of the chain named.
target: T1, androgen receptor in MDA-MB453-MMTV clone 54-19 cells (Homo sapiens, UniProt P10275); assay: AR Antagonist Cell Assay (MMTV-luciferase reporter, DHT-induced); format: cell-based; details: MDA-MB453-MMTV clone 54-19, 100 pM DHT, 17 hr; mean of multiple tests
T1 sequence (P10275 1-920 Q868H): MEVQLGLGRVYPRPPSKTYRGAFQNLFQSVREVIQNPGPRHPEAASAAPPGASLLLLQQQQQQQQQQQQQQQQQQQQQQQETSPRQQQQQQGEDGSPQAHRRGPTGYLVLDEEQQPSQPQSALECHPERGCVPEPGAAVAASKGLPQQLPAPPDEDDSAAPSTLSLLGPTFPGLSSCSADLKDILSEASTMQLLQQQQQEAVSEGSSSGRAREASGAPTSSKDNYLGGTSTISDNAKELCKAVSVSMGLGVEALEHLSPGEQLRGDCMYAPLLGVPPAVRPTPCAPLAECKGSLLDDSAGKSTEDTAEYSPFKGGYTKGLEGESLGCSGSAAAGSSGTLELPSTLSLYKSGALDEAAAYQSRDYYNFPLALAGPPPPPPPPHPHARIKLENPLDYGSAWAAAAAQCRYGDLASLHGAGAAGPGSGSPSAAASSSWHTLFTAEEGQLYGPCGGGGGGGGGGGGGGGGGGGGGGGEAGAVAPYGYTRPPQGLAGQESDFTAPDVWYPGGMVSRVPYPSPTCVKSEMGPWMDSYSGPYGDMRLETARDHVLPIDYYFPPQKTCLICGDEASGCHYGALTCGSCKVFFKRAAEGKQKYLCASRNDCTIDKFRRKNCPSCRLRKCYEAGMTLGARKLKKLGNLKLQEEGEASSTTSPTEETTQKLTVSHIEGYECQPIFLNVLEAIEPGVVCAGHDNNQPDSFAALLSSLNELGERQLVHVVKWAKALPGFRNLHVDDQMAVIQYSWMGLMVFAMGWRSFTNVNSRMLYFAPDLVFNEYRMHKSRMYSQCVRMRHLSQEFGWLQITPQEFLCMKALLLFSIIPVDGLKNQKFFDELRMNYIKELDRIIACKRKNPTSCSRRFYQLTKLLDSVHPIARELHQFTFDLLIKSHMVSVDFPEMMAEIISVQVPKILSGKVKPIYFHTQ
Description: The compounds ability to antagonize the effects of androgen on the androgen receptor were determined in a whole cell assay as described immediately below.
Cell line: MDA-MB453-MMTV clone 54-19. This cell line is a stable transfected cell line with MDA-MB453 cell background (a human breast tumor cell line expressing androgen receptor). A MMTV minimal promoter containing ARE was first cloned in front of a firefly luciferase reporter gene. Then the cascade was cloned into transfection vector pUV120puro. Electroporation method was used for transfecting MDA-MB-453 cell. Puromycin resistant stable cell line was selected.
Culture medium: DMEM (high glucose, Gibco cat #: 11960-044), 10% FBS, and 1% L-glutamine
Plating medium: DMEM (phenol red free), 10% charcoal treated HyClone serum, 1% L-glutamine
Assay medium: DMEM (phenol red free), 1% charcoal treated HyClone serum, 1% L-glutamine, and 1% penicillin/streptomycin
3× luciferase buffer: 2% beta-mercaptoethanol, 0.6% ATP, 0.0135% luciferine in cell lysis buffer
Cells are maintained in culture medium, splitting cells when they reach 80-90% confluence. To test compounds, 10,000 cells/well are plated to opaque 96 cell culture plate in 100 ul/well plating medium, culture for overnight at 37° C. in cell culture incubator. Carefully remove plating medium, then add 80 ul/well of pre-warmed assay medium, add 10 ul/well testing compound (final concentration at) 1000 nM, 200 nM, 40 nM, 8 nM, 1.6 nM, and 0.32 nM), incubate at 37° C. for 30 minutes. Add 10 ul/well freshly prepared DHT (final concentration at 100 pM) to each well, incubate at 37° C. for 17 hr (overnight). Add 50 ul/well 3× luciferase buffer, incubate at room temperature for 5 minutes, then count on Luminometer. The fold induction over background by 100 pM DHT in the absence of testing compounds is standardized as 100% and experimental result is expressed as percentage of inhibition by testing compounds.
The results are reported as the mean of multiple tests as described below (the numbers of tests are indicated in the footnote). ND denotes that the compound was not tested.

Compared with `CC(Oc1ccc(C#N)c(C(F)(F)F)c1)c1ccc(F)cc1` (centres unmarked) [Example 25, 4-[1-(4-Fluoro-phenyl)-ethoxy]-2-trifluoromethyl-benzonitrile], `COc1cccc(C(C)Oc2ccc(C#N)c(C(F)(F)F)c2)c1` (centres unmarked) [Example 4, 4-[1-(3-Methoxy-phenyl)-ethoxy]-2-t-trifluoromethyl-benzonitrile] is higher in IC50: 92 nM for the first, > 1000 nM for the second.

Going from `CCC(Oc1ccc(C#N)c(C(F)(F)F)c1)c1cccc(O)c1` (racemic) [Example 11, 4-[1-(3-Hydroxyphenyl)propoxy]-2-(trifluoromethyl)benzonitrile] to `CC(Oc1ccc(C#N)c(C(F)(F)F)c1)c1ccccc1Cl` (centres unmarked) [Example 22, 4-[1-(2-Chloro-phenyl)-ethoxy]-2-trifluoromethyl-benzonitrile], the IC50 falls from > 1000 nM to 102 nM. The second is the more potent here.

Going from `Cc1ccc(C)c(C(C)Oc2ccc(C#N)c(Cl)c2)c1` (centres unmarked) [Example 61, 2-Chloro-4-[1-(2,5-dimethyl-phenyl)-ethoxy]-benzonitrile] to `Cc1ccccc1C(C)Oc1ccc(C#N)c(Cl)c1` (centres unmarked) [Example 62], the IC50 falls from > 1000 nM to 464 nM. The second is the more potent here.

First: N#Cc1ccc(CCOc2ccc(C#N)c(C(F)(F)F)c2)cc1 [Example 75, 4-[2-(4-Cyano-phenyl)-ethoxy]-2-trifluoromethyl-benzonitrile]
Second: N#Cc1ccc(OCc2ccccc2)cc1C(F)(F)F [Example 50, 4-Benzyloxy-2-trifluoromethyl-benzonitrile]
The IC50 of the first is 9.2-fold lower: 55 nM for the first, 508 nM for the second. The first is the more potent here.

First: Cc1cccc(C(C)Oc2ccc(C#N)c(Cl)c2)c1 (centres unmarked) [Example 60, 2-Chloro-4-(1-m-tolyl-ethoxy)-benzonitrile]
Second: CC(Oc1ccc(C#N)c(Cl)c1)c1ccccc1 (centres unmarked) [Example 71, 2-Chloro-4-(1-phenyl-ethoxy)-benzonitrile]
The IC50 of the first is higher: > 1000 nM for the first, 8 nM for the second.

With `COc1ccccc1COc1ccc(C#N)c(C(F)(F)F)c1` [Example 45, 4-(2-Methoxy-benzyloxy)-2-trifluoromethyl-benzonitrile] the IC50 was > 1000 nM.

target: T2, hAR (human androgen receptor, baculovirus/Sf9 generated extracts) (Homo sapiens, UniProt P10275); assay: AR Binding Assay (competitive binding with 3H-DHT tracer); details: AR Binding IC50, hAR extract, 1 nM 3H-DHT, one hour at 4° C.; mean of multiple tests
T2 construct: made in house; host or cells: baculovirus/Sf9 insect cells (crude extract)
T2 sequence (P10275 1-920): T1 sequence (P10275 1-920 Q868H) with H868Q
Description: The compounds of Formula I have affinity for the androgen receptor. […] The description below describes how the assay was carried out.
Competitive binding analysis was performed on baculovirus/Sf9 generated hAR extracts in the presence or absence of different concentrations of test agent and a fixed concentration of ^3H-dihydrotestosterone (^3H-DHT) as tracer. This binding assay method is a modification of a protocol previously described (Liao S., et. al., J. Steroid Biochem., 20:11-17, 1984). Briefly, progressively decreasing concentrations of compounds are incubated in the presence of hAR extract (Chang et al., P.N.A.S., Vol. 89, pp. 5546-5950, 1992), hydroxylapatite, and 1 nM ^3H-DHT for one hour at 4° C. Subsequently, the binding reactions are washed three times to completely remove excess unbound ^3H-DHT. hAR bound ^3H-DHT levels are determined in the presence of compounds (i.e. competitive binding) and compared to levels bound when no competitor is present (i.e. maximum binding). Compound binding affinity to the hAR is expressed as the concentration of compound at which one half of the maximum binding is inhibited. Table II below provides the results that were obtained for selected compounds (reported data is the mean of multiple tests as shown below).

First: CC(Oc1ccc(C#N)c(C(F)(F)F)c1)c1ccc(F)cc1 (centres unmarked) [Example 25, 4-[1-(4-Fluoro-phenyl)-ethoxy]-2-trifluoromethyl-benzonitrile]
Second: CCC(Oc1ccc(C#N)c(C(F)(F)F)c1)c1cccc(O)c1 (racemic) [Example 11, 4-[1-(3-Hydroxyphenyl)propoxy]-2-(trifluoromethyl)benzonitrile]
The IC50 of the first is 12-fold higher: 137 nM for the first, 11 nM for the second. The second is the more potent here.

`C[C@@H](Oc1ccc(C#N)cc1Cl)c1ccccc1` [Example 38, (R)-3-Chloro-4-(1-phenyl-ethoxy)-benzonitrile] and `C[C@H](Oc1ccc(C#N)cc1Cl)c1ccccc1` [Example 39, (S)-3-Chloro-4-(1-phenyl-ethoxy)-benzonitrile] are within 1.5-fold of each other in IC50: 281 nM for the first, 410 nM for the second.

`Cc1ccc(C)c(C(C)Oc2ccc(C#N)c(Cl)c2)c1` (centres unmarked) [Example 61, 2-Chloro-4-[1-(2,5-dimethyl-phenyl)-ethoxy]-benzonitrile] and `Cc1cccc(C(C)Oc2ccc(C#N)c(Cl)c2)c1` (centres unmarked) [Example 60, 2-Chloro-4-(1-m-tolyl-ethoxy)-benzonitrile] are within 1.5-fold of each other in IC50: 61 nM for the first, 74 nM for the second.

Compared with `N#Cc1ccc(CCOc2ccc(C#N)c(C(F)(F)F)c2)cc1` [Example 75, 4-[2-(4-Cyano-phenyl)-ethoxy]-2-trifluoromethyl-benzonitrile], `CC(Oc1ccc(C#N)c(Cl)c1)c1ccccc1` (centres unmarked) [Example 71, 2-Chloro-4-(1-phenyl-ethoxy)-benzonitrile] is 26-fold lower in IC50: 343 nM for the first, 13 nM for the second.

same assay, conditions: hAR extract, 1 nM 3H-DHT, one hour at 4° C.; mean of multiple tests; read-out: AR Binding IC50

Going from `COc1cccc(C(C)Oc2ccc(C#N)c(C(F)(F)F)c2)c1` (centres unmarked) [Example 4, 4-[1-(3-Methoxy-phenyl)-ethoxy]-2-t-trifluoromethyl-benzonitrile] to `CC(Oc1ccc(C#N)c(C(F)(F)F)c1)c1cccc(C(F)(F)F)c1` (centres unmarked) [Example 32, 2-Trifluoromethyl-4-[1-(3-trifluoromethyl-phenyl)-ethoxy]-benzonitrile], the IC50 rises from 78 nM to 214 nM (2.7-fold).

Compared with `Cc1cccc(COc2ccc(C#N)c(C(F)(F)F)c2)c1` [Example 52, 4-(3-Methyl-benzyloxy)-2-trifluoromethyl-benzonitrile], `N#Cc1ccc(OCc2ccccc2)cc1C(F)(F)F` [Example 50, 4-Benzyloxy-2-trifluoromethyl-benzonitrile] is 1.7-fold lower in IC50: 302 nM for the first, 174 nM for the second.

Compared with `Cc1ccccc1C(C)Oc1ccc(C#N)c(Cl)c1` (centres unmarked) [Example 62], `Cc1ccccc1C(C)Oc1ccc(C#N)c(C(F)(F)F)c1` (centres unmarked) [Example 27, 4-(1-o-Tolyl-ethoxy)-2-trifluoromethyl-benzonitrile] is 8.4-fold higher in IC50: 52 nM for the first, 439 nM for the second.

First: CC(Oc1ccc(C#N)c(C(F)(F)F)c1)c1ccccc1Cl (centres unmarked) [Example 22, 4-[1-(2-Chloro-phenyl)-ethoxy]-2-trifluoromethyl-benzonitrile]
Second: CC(Oc1ccc(C#N)c(C(F)(F)F)c1)c1ccc(Cl)cc1 (centres unmarked) [Example 23, 4-[1-(4-Chloro-phenyl)-ethoxy]-2-trifluoromethyl-benzonitrile]
The IC50 of the first is 2.8-fold lower: 108 nM for the first, 307 nM for the second. The first is the more potent here.

`CCC(C)(Oc1ccc(C#N)c(C(F)(F)F)c1)c1ccccc1` (centres unmarked) [Example 47, 4-(1-Methyl-1-phenyl-propoxy)-2-trifluoromethyl-benzonitrile] and `CCC(Oc1ccc(C#N)c(C(F)(F)F)c1)c1cccc(C)n1` (centres unmarked) [Example 87, 4-[1-(6-Methyl-pyridin-2-yl)-propoxy]-2-trifluoromethyl-benzonitrile] are within 1.5-fold of each other in IC50: 461 nM for the first, 483 nM for the second.

`CC(Cc1ccccc1)(Oc1ccc(C#N)cc1Cl)c1ccccc1` (centres unmarked) [Example 42, 3-Chloro-4-(1-methyl-1,2-diphenyl-ethoxy)-benzonitrile] and `COc1cc(OC(C)Cc2ccccc2)ccc1C#N` (centres unmarked) [Example 71A, 2-Methoxy-4-(1-methyl-2-phenyl-ethoxy)-benzonitrile] are within 1.5-fold of each other in IC50: 377 nM for the first, 306 nM for the second.

`Cc1cccc(C)c1C(C)Oc1ccc(C#N)c(Cl)c1` (centres unmarked) [Example 63, 2-Chloro-4-[1-(2,6-dimethyl-phenyl)-ethoxy]-benzonitrile] and `CCCC(Oc1ccc(C#N)c(C(F)(F)F)c1)c1cccc(C)n1` (centres unmarked) [Example 86, 4-[1-(6-Methyl-pyridin-2-yl)-butoxy]-2-trifluoromethyl-benzonitrile] are within 1.5-fold of each other in IC50: 328 nM for the first, 330 nM for the second.

`CC(Oc1ccc(C#N)c(C(F)(F)F)c1)c1cccc(OC2CCCCO2)c1` (centres unmarked) [Example 7, 4-{1-[3-(Tetrahydro-2H-pyran-2-yloxy)phenyl]ethoxy}-2-(trifluoromethyl)benzonitrile] and `COc1ccc(CCOc2ccc(C#N)c(C(F)(F)F)c2)cc1` [Example 76, 4-[2-(4-Methoxy-phenyl)-ethoxy]-2-trifluoromethyl-benzonitrile] are within 1.5-fold of each other in IC50: 383 nM for the first, 281 nM for the second.

Reference: patent US20090170886A1 (Pfizer Inc, priority 2005, published 2009)
